Patent US8247211B2, “Glycopeptide antibiotics” (American Cyanamid Company, priority 2001, dated 2012)

Key:
[1] = tested on: Enterococcus sp.; assay: In vitro antibacterial evaluation: minimum inhibitory concentration (MIC), broth dilution method; type: cell-based
Outline: (§1)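 Broth dilution per NCCLS M7-A2 in Muller-Hinton II […], inoculum 5×10^5 CFU/mL, antibiotic tested over 64-0.06 μg/mL. MIC is taken as the lowest concentration that inhibits growth. Panel includes recent clinical isolates resistant to methicillin, penicillin and/or vancomycin.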

[2] = tested on: Escherichia coli; assay: as above; type: cell-based; settings: strain GC 4560
Outline: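 Using Muller-Hinton II […] and an inoculum of 5×10^5 CFU/mL, antibiotic dilutions from 64 down to 0.06 μg/mL were tested following NCCLS M7-A2. The MIC is the lowest concentration inhibiting growth, including in methicillin-, penicillin- or vancomycin-resistant clinical isolates.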

[3] = tested on: Staphylococcus sp.; assay: as above; type: cell-based; settings: broth dilution, 18 hours at 35° C.
Outline: as §1

[4] = Anatomic pathology (heart and kidney histopathology) in mice; type: in vivo, CD-1 mice; settings: 20 mg/kg intravenously daily for 9 days, microscopic histopathology on day 10
Protocol: 20-day-old CD-1 mice were divided into a vehicle control group (5 mice) and a treatment group (5 mice). Samples of glycopeptide antibiotics were administered at 20 mg/kg intravenously daily for 9 days.
Samples of tissues from necropsied mice were formalin-fixed, paraffin-embedded, sectioned, stained with hematoxylin and eosin, and examined microscopically. Histopathologic findings were recorded. These findings were subjectively graded on a scale corresponding to slight, mild, moderate, marked and severe as compared to untreated controls.

CC(c1ccccc1)C1NC(=O)CNC(=O)C(CO)NC(=O)C(C(O)C2CNC(=NCc3ccccc3)N2C2OC(CO)C(O)C(O)C2O)NC(=O)C(C(O)C2CNC(=N)N2)NC(=O)C(Cc2ccc(OC3OC(CO)C(OC4OC5COC6(OC5C(O)C4O)C4CC5CC(C4)CC6C5)C(O)C3O)cc2)NC1=O (stereo not drawn) [Example 76, Cyclo[glycyl-β-methylphenylalanyl-O-[4-O-[4,6-O-(2-adamantylidene)hexopyranosyl]hexopyranosyl]tyrosyl-3-(2-iminoimidazolidin-4-yl)seryl-3-[2-(benzylimino)-3-hexopyranosylimidazolidin-4-yl]serylseryl]]
MIC Enterococcus faecium (GC 2243) ([1]; strain GC 2243): 2 to 8 mg/L
MIC Enterococcus faecalis (GC 4553) ([1]; strain GC 4553): 4 to 8 mg/L
MIC Enterococcus faecium (GC 4557) ([1]; strain GC 4557): 1 to 2 mg/L
MIC Enterococcus avium (GC 4558) ([1]; strain GC 4558): 2 to 8 mg/L
MIC Escherichia coli (GC 4560) [2]: 2 to 4 mg/L
MIC Coagulase Negative Staphylococcus (GC 4547) [3]: 2 to 4 mg/L
MIC Coagulase Negative Staphylococcus (GC 4548) [3]: 2 to 4 mg/L
MIC Coagulase Negative Staphylococcus (GC 4549) [3]: 2 to 4 mg/L
MIC Coagulase Negative Staphylococcus (GC 4551) [3]: 2 to 8 mg/L
MIC Coagulase Negative Staphylococcus (GC 6257) [3]: 0.5 to 2 mg/L
MIC Staphylococcus aureus (ATCC 29213) [3]: 2 to 8 mg/L
MIC Staphylococcus aureus (GC 1131) [3]: 4 to 8 mg/L
MIC Staphylococcus aureus (GC 3051) [3]: 2 to 8 mg/L
MIC Staphylococcus aureus (GC 3053) [3]: 2 to 8 mg/L
MIC Staphylococcus aureus (GC 4541) [3]: 2 to 4 mg/L
MIC Staphylococcus aureus (GC 4542) [3]: 2 to 8 mg/L
MIC Staphylococcus aureus (GC 4544) [3]: 4 to 8 mg/L
MIC Staphylococcus aureus (GC 4545) [3]: 2 to 8 mg/L
MIC Staphylococcus aureus SMITH (GC 4543) [3]: 1 to 4 mg/L
MIC Staphylococcus haemolyticus (GC 4546) [3]: 2 to 4 mg/L
MIC Staphylococcus aureus-SMITH (GC 4543) ([3]; strain SMITH GC 4543): 1 to 4 mg/L
Anatomical Pathology (Day 10), Heart [4]: 0
Anatomical Pathology (Day 10), Kidney [4]: ++

N=C1NCC(C(O)C2NC(=O)[C@H](C(O)C3CNC(=N)N3)NC(=O)C(Cc3ccc(O)cc3)NC(=O)[C@H](Cc3ccccc3)NC(=O)CNC(=O)[C@H](CO)NC2=O)N1 (stereo in doubt) [Example 280a, Cyclo[glycylphenylalanyltyrosyl-3-(2-iminoimidazolidin-4-yl)seryl-3-(2-iminoimidazolidin-4-yl)serylseryl]]
Anatomical Pathology (Day 10), Heart [4]: 0
Anatomical Pathology (Day 10), Kidney [4]: ++
